Measured values taken from patent EP4745153A1, “GLP-1, GIP AND GCG RECEPTOR […] USE THEREOF” (Jiangsu Hengrui Pharmaceuticals Co., Ltd., priority 2023, dated 2025).
Starred links: 1 amine or outer side, 2 acyl side, 3 side chain; linkers in the order of their positions; H or OH if unused. Non-standard residues stand in square brackets, D forms with d. Residues, ends and D or L forms follow the SMILES beside them. Groups on a side chain read outwards from the residue. ξ: configuration not given here. *: point of attachment. C20 diacid = O=C(O)CCCCCCCCCCCCCCCCCCC(=O)*; γGlu = O=C(O)[C@H](CCC(=O)[*:2])N[*:1]; ξαMeL = CC(C)CC(C)(N)C(=O)O; AEEA = NCCOCCOCC(=O)O; Aib = CC(C)(N)C(=O)O

Assays:
human GIPR = target: T1, human GIPR (Homo sapiens, UniProt P48546); assay: cAMP HTRF agonist activity assay in CHO-K1 cells expressing GIPR; format: cell-based; conditions: read-out: Activity against human GIPR (EC50 nM); note: 5% FBS, 0.1% Casein
T1 construct: expressed in transfected cells; host or cells: CHO-K1 clonal cell line
T1 sequence (P48546 22-466): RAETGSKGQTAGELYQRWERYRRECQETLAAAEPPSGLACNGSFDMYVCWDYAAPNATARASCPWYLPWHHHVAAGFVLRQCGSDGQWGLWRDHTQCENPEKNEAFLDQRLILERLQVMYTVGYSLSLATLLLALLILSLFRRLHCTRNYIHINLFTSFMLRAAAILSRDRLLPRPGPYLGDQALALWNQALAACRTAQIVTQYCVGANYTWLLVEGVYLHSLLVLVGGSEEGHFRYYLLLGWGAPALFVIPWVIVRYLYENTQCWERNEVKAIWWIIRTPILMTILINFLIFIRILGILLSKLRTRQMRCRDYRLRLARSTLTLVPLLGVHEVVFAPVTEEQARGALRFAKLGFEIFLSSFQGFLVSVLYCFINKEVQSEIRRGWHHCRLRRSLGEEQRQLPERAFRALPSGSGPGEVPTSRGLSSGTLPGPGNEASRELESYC
Procedure: Functional activity was determined in CHO-K1 clonal cell lines expressing GIPR, GLP-1R, and GCGR. […] Each recipient cell (5000 cells/well) was added to an SV 96-well plate (Cisbio, 66PL96025) and incubated with the prepared polypeptide at 37°Cfor 30 min. The resulting increase in intracellular cAMP was quantitatively measured using the cAMP-GS dynamic HTRF assay kit (Cisbio, 62AM4PEJ). Briefly, the intracellular cAMP levels were determined by adding cAMP-d2 conjugate in cell lysis buffer, followed by the antibody anti-cAMP-Eu cryptate (also in cell lysis buffer).
Using the maximum response percentage vs. the added polypeptide concentration, the relative EC50 values were derived through nonlinear regression analysis and fitted to a four-parameter logarithmic equation. For specific data, refer to Tables 7-1 to 7-8 below. […]

[1] = Pharmacokinetics in mice after single intravenous injection; set-up: species or system C57 mice; conditions: male, C57, mouse, in vivo, iv
Procedure: Male C57 mice were used as test animals. The target compound was administered via a single intravenous injection, and the pharmacokinetic characteristics of the compound in C57 mice in vivo (plasma) were determined.
Male C57 mice, weighing approximately 25g, aged 4-6 weeks. After preparing the polypeptide compound solution using 1×PBS dissolving solution, the compound was administered intravenously at a dose of 200 nmol/kg, where each compound was administered to 3 animals. Blood samples of 60 µL were collected at 5 min, 15 min, 0.5 h, 1 h, 2 h, 4 h, 6 h, 24 h, 48 h and 72 h after the infusion was completed and transferred to centrifuge tubes containing EDTA-K2 anticoagulant. Whole blood samples were centrifuged at 4000 g for 5 min at 4°C. Plasma was separated and plasma samples were frozen and stored at -80 °C.
Sample pretreatment method: 30 µL of plasma samples was taken, and 120 µL of 0.1% formic acid in methanol containing 1 ng/mL internal standard verapamil was added. The mixture was vortexed for 5 min, and centrifuged at 10000 rpm for 10 min at low temperature. 70 µL of supernatant was taken, and 70 µL of water was added and mixed well. Analysis was performed by LC-MS instrument.
LC-MS analysis method: (1) chromatographic conditions: mobile phases A and B: 0.1% formic acid in water and 0.1% formic acid in acetonitrile, respectively; gradient elution mode; flow rate: 0.5 mL/min; injection volume: 10 µL; chromatographic column: nanomicro Unisil C18aq (4.6 mm × 150 mm, 5 µm); column temperature: 40°C. (2) Mass spectrometry conditions: For mass spectrometry, an electrospray ionization source (ESI), positive ion analysis mode, and multiple reaction monitoring (MRM) scanning mode were used.
For data processing, SCIEX OS (Version 2.1.6) software was used to quantify blood drug concentration data and PKSolver (Version 2.0) software was used to calculate pharmacokinetic parameters.

Row | SMILES | EC50 (human GIPR) | clearance [1] | half-life [1]
1 | CC[C@H](C)[C@H](NC(=O)[C@H](CO)NC(=O)[C@H](CC(C)C)NC(=O)[C@H](CC(=O)O)NC(=O)[C@H](CO)NC(=O)[C@@H](NC(=O)[C@H](Cc1ccccc1)NC(=O)[C@@H](NC(=O)CNC(=O)[C@H](Cc1c[nH]cn1)NC(=O)C(C)(C)NC(=O)[C@@H](N)Cc1c[nH]cn1)[C@@H](C)O)[C@@H](C)O)C(=O)NC(C)(CC(C)C)C(=O)N[C@@H](CC(C)C)C(=O)N[C@@H](CCC(=O)O)C(=O)N[C@@H](CCCCNC(=O)COCCOCCNC(=O)COCCOCCNC(=O)CC[C@H](NC(=O)CCCCCCCCCCCCCCCCCCC(=O)O)C(=O)O)C(=O)N[C@@H](CCCCN)C(=O)N[C@@H](C)C(=O)N[C@@H](C)C(=O)N[C@@H](CCC(N)=O)C(=O)N[C@@H](CCC(=O)O)C(=O)N[C@@H](Cc1ccccc1)C(=O)N[C@H](C(=O)N[C@@H](CCC(=O)O)C(=O)N[C@@H](Cc1c[nH]c2ccccc12)C(=O)N[C@@H](CC(C)C)C(=O)N[C@@H](CC(C)C)C(=O)N[C@@H](C)C(=O)NCC(=O)NCC(=O)N1CCC[C@H]1C(=O)N[C@@H](CO)C(=O)N[C@@H](CO)C(=O)NCC(=O)N[C@@H](C)C(=O)N1CCC[C@H]1C(=O)N1CCC[C@H]1C(=O)N1CCC[C@H]1C(=O)N[C@@H](CO)C(N)=O)C(C)C (stereo partly shown) [Compound 0143] (H-H[Aib]HGTFTSDLSI[ξαMeL]LEK([AEEA-AEEA-γGlu-C20 diacid])KAAQEFVEWLLAGGPSSGAPPPS-NH2) | 0.004 nM | 2.82 mL/h/kg | 13.7 h
2 | CC[C@H](C)[C@H](NC(=O)[C@H](CO)NC(=O)[C@H](Cc1ccc(O)cc1)NC(=O)[C@H](CC(=O)O)NC(=O)[C@H](CO)NC(=O)[C@@H](NC(=O)[C@H](Cc1ccccc1)NC(=O)[C@@H](NC(=O)CNC(=O)[C@H](Cc1c[nH]cn1)NC(=O)C(C)(C)NC(=O)[C@@H](N)Cc1c[nH]cn1)[C@@H](C)O)[C@@H](C)O)C(=O)N[C@@H](CC(C)C)C(=O)N[C@@H](CC(C)C)C(=O)N[C@@H](CCC(=O)O)C(=O)N[C@@H](CCCCNC(=O)COCCOCCNC(=O)COCCOCCNC(=O)CC[C@H](NC(=O)CCCCCCCCCCCCCCCCCCC(=O)O)C(=O)O)C(=O)N[C@@H](CCC(N)=O)C(=O)N[C@@H](C)C(=O)N[C@@H](C)C(=O)NC1(C(=O)N[C@@H](CCC(=O)O)C(=O)N[C@@H](Cc2ccccc2)C(=O)N[C@H](C(=O)N[C@@H](CCC(=O)O)C(=O)N[C@@H](Cc2c[nH]c3ccccc23)C(=O)N[C@@H](CC(C)C)C(=O)N[C@@H](CC(C)C)C(=O)N[C@@H](C)C(=O)N[C@H](CCC(=O)O)C(=O)NCC(=O)N2CCC[C@H]2C(=O)N[C@@H](CO)C(=O)N[C@@H](CO)C(=O)NCC(=O)N[C@@H](C)C(=O)N2CCC[C@H]2C(=O)N2CCC[C@H]2C(=O)N2CCC[C@H]2C(=O)N[C@@H](CO)C(N)=O)C(C)C)CC1 [Compound 0149] | 0.004 nM |  | 
3 | CC[C@H](C)[C@H](NC(=O)[C@H](CO)NC(=O)[C@H](Cc1ccc(O)cc1)NC(=O)[C@H](CC(=O)O)NC(=O)[C@H](CO)NC(=O)[C@@H](NC(=O)[C@H](Cc1ccccc1)NC(=O)[C@@H](NC(=O)CNC(=O)[C@H](Cc1c[nH]cn1)NC(=O)C(C)(C)NC(=O)[C@@H](N)Cc1c[nH]cn1)[C@@H](C)O)[C@@H](C)O)C(=O)N[C@@H](CC(C)C)C(=O)N[C@@H](CC(C)C)C(=O)N[C@@H](CCC(=O)O)C(=O)N[C@@H](CCCCNC(=O)COCCOCCNC(=O)COCCOCCNC(=O)CC[C@H](NC(=O)CCCCCCCCCCCCCCCCCCC(=O)O)C(=O)O)C(=O)N[C@@H](CCC(N)=O)C(=O)N[C@@H](C)C(=O)N[C@@H](C)C(=O)N[C@@H](CCC(N)=O)C(=O)N[C@@H](CCC(=O)O)C(=O)N[C@@H](Cc1ccccc1)C(=O)N[C@H](C(=O)N[C@@H](CCC(=O)O)C(=O)N[C@@H](Cc1c[nH]c2ccccc12)C(=O)N[C@@H](CC(C)C)C(=O)N[C@@H](CC(C)C)C(=O)N[C@@H](C)C(=O)NCC(=O)NCC(=O)N1CCC[C@H]1C(=O)N[C@@H](CO)C(=O)N[C@@H](CO)C(=O)NCC(=O)N[C@@H](C)C(=O)N1CCC[C@H]1C(=O)N1CCC[C@H]1C(=O)N1CCC[C@H]1C(=O)N[C@@H](CO)C(N)=O)C(C)C [Compound 0152] (H-H[Aib]HGTFTSDYSILLEK([AEEA-AEEA-γGlu-C20 diacid])QAAQEFVEWLLAGGPSSGAPPPS-NH2) | 0.009 nM |  | 
4 | CC[C@H](C)[C@H](NC(=O)[C@H](CO)NC(=O)[C@H](Cc1ccc(O)cc1)NC(=O)[C@H](CC(=O)O)NC(=O)[C@H](CO)NC(=O)[C@@H](NC(=O)[C@H](Cc1ccccc1)NC(=O)[C@@H](NC(=O)CNC(=O)[C@H](Cc1c[nH]cn1)NC(=O)C(C)(C)NC(=O)[C@@H](N)Cc1c[nH]cn1)[C@@H](C)O)[C@@H](C)O)C(=O)N[C@@H](CC(C)C)C(=O)N[C@@H](CC(C)C)C(=O)N[C@@H](CCC(=O)O)C(=O)N[C@@H](CCCCNC(=O)COCCOCCNC(=O)COCCOCCNC(=O)CC[C@H](NC(=O)CCCCCCCCCCCCCCCCCCC(=O)O)C(=O)O)C(=O)N[C@@H](CCC(N)=O)C(=O)N[C@@H](C)C(=O)N[C@@H](C)C(=O)N[C@@H](CCC(N)=O)C(=O)N[C@@H](CCC(=O)O)C(=O)N[C@@H](Cc1ccccc1)C(=O)N[C@H](C(=O)N[C@@H](CCC(=O)O)C(=O)N[C@@H](Cc1c[nH]c2ccccc12)C(=O)N[C@@H](CC(C)C)C(=O)N[C@@H](CC(C)C)C(=O)N[C@@H](C)C(=O)N[C@H](CCC(=O)O)C(=O)NCC(=O)N1CCC[C@H]1C(=O)N[C@@H](CO)C(=O)N[C@@H](CO)C(=O)NCC(=O)N[C@@H](C)C(=O)N1CCC[C@H]1C(=O)N1CCC[C@H]1C(=O)N1CCC[C@H]1C(=O)N[C@@H](CO)C(N)=O)C(C)C [Compound 0153] | 0.01 nM |  | 
5 | CC[C@H](C)[C@H](NC(=O)[C@H](CO)NC(=O)[C@H](CC(C)C)NC(=O)[C@H](CC(=O)O)NC(=O)[C@H](CO)NC(=O)[C@@H](NC(=O)[C@H](Cc1ccccc1)NC(=O)[C@@H](NC(=O)CNC(=O)[C@H](Cc1c[nH]cn1)NC(=O)C(C)(C)NC(=O)[C@@H](N)Cc1c[nH]cn1)[C@@H](C)O)[C@@H](C)O)C(=O)N[C@@H](CC(C)C)C(=O)N[C@@H](CC(C)C)C(=O)N[C@@H](CCC(=O)O)C(=O)N[C@@H](CCCCNC(=O)COCCOCCNC(=O)COCCOCCNC(=O)CC[C@H](NC(=O)CCCCCCCCCCCCCCCCCCC(=O)O)C(=O)O)C(=O)N[C@@H](CCCCN)C(=O)N[C@@H](C)C(=O)N[C@@H](C)C(=O)NC(C)(CC)C(=O)N[C@@H](CCC(=O)O)C(=O)N[C@@H](Cc1ccccc1)C(=O)N[C@H](C(=O)N[C@@H](CCC(=O)O)C(=O)N[C@@H](Cc1c[nH]c2ccccc12)C(=O)N[C@@H](CC(C)C)C(=O)N[C@@H](CC(C)C)C(=O)N[C@@H](C)C(=O)NCC(=O)NCC(=O)N1CCC[C@H]1C(=O)N[C@@H](CO)C(=O)N[C@@H](CO)C(=O)NCC(=O)N[C@@H](C)C(=O)N1CCC[C@H]1C(=O)N1CCC[C@H]1C(=O)N1CCC[C@H]1C(=O)N[C@@H](CO)C(N)=O)C(C)C (stereo partly shown) [Compound 0136] | 0.001 nM |  | 
